By MIC is commonly meant the smallest concentration in the dilution series that meets the test's criterion for growth inhibition.

Consider five molecules from DBAASP.

Test systems include Salmonella typhimurium; Listeria monocytogenes; Escherichia coli O157; Bacillus megaterium Bm11; Staphylococcus capitis 1; Botrytis cinerea.
Common to all, as to assay: ≥ marks a high value that may be exact or a test limit, other limits are often not marked, values filed in µg/mL are converted to µM
In experiment [1] the test system is Staphylococcus epidermidis ATCC 9709.
In experiment [2] the test system is Micrococcus luteus ATCC 10420.
Experiment [3] concerns Staphylococcus aureus ATCC 43300.
The subject of experiment [4] is Staphylococcus aureus ATCC 29213.
For experiment [5], the system named is Escherichia coli ATCC 25404.
Experiment [6] concerns Staphylococcus aureus ATCC 25923.
The subject of experiment [7] is Staphylococcus aureus Cowan 1.
Experiment [8] has as its system Yersinia pseudotuberculosis YPIII.
Experiment [9] deals with Escherichia coli ATCC 25922.
Experiment [10] deals with Candida albicans ATCC 10231.
For experiment [11], the system named is Klebsiella pneumoniae ATCC 700603.
In experiment [12] the test system is Candida albicans ATCC 90028.
Experiment [13] concerns Staphylococcus aureus 127/08.
In experiment [14] the test system is Stenotrophomonas maltophilia B32/1.
Experiment [15] concerns Acinetobacter baumannii NM8.
Experiment [16] deals with Escherichia coli ATCC 25726.
Experiment [17] relates to Pseudomonas aeruginosa ATCC 27853.
In experiment [18] the test system is Stenotrophomonas maltophilia B32/4.
The test system of experiment [19] is Escherichia coli ATCC 11775.
In experiment [20] the test system is Staphylococcus aureus ATCC 12600.

Converted amounts (≈) assume the structure as drawn.

As for `CC(C)C[C@H](NC(=O)[C@H](CC(C)C)NC(=O)[C@H](Cc1cnc[nH]1)NC(=O)[C@H](CO)NC(=O)[C@H](CC(C)C)NC(=O)[C@H](C)NC(=O)[C@H](CCCCN)NC(=O)[C@H](Cc1ccccc1)NC(=O)[C@H](CC(C)C)NC(=O)[C@H](C)NC(=O)CNC(=O)[C@H](CC(C)C)NC(=O)[C@@H](N)Cc1ccccc1)C(=O)O` [FLGALFKALSHLL], the MIC was 8 µM (≈ 11.4 µg/mL) in experiment [1]; 8 µM (≈ 11.4 µg/mL) in [2]; no less than 64 µM with Salmonella typhimurium; 4 µM (≈ 5.72 µg/mL) in experiment [3]; 8 µM (≈ 11.4 µg/mL) against Listeria monocytogenes; 8 µM (≈ 11.4 µg/mL) in experiment [4]. In addition, the minimum inhibitory concentration (MIC) (in the experiment with Escherichia coli O157; in [5]) was no less than 64 µM throughout.
With `CC(C)C[C@H](NC(=O)[C@H](CC(C)C)NC(=O)[C@H](CCCCN)NC(=O)[C@H](CO)NC(=O)[C@H](CC(C)C)NC(=O)[C@H](C)NC(=O)[C@H](CCCCN)NC(=O)[C@H](Cc1c[nH]c2ccccc12)NC(=O)[C@H](CC(C)C)NC(=O)[C@H](C)NC(=O)CNC(=O)[C@H](CC(C)C)NC(=O)[C@@H](N)Cc1ccccc1)C(=O)O` [FLGALWKALSKLL], the minimum inhibitory concentration (MIC) in experiment [1] was 4 µM (≈ 5.84 µg/mL); in experiment [2], 2 µM (≈ 2.92 µg/mL); in the experiment on Salmonella typhimurium, no less than 64 µM; in the experiment with Listeria monocytogenes it was 4 µM (≈ 5.84 µg/mL); in experiment [6], 4 µM (≈ 5.84 µg/mL); against Escherichia coli O157 it was no less than 64 µM. Moreover, the minimal inhibitory concentration (MIC) in [5] is no less than 64 µM.
Turning to `CC[C@H](C)[C@H](NC(=O)[C@H](CC(C)C)NC(=O)[C@@H]1CCCN1C(=O)[C@H](CC(C)C)NC(=O)[C@@H](N)Cc1ccccc1)C(=O)NCC(=O)N[C@@H](CCCN=C(N)N)C(=O)N[C@H](C(=O)N[C@@H](CC(C)C)C(=O)N[C@@H](CO)C(=O)NCC(=O)N[C@@H](C)C(=O)N[C@@H](CC(C)C)C(N)=O)C(C)C` [FLPLIGRVLSGAL], the MIC is no less than 40 µM in experiment [7]; 20 µM (≈ 27.1 µg/mL) in the experiment on Bacillus megaterium Bm11; no less than 40 µM in the experiment with Staphylococcus capitis 1; no less than 40 µM in experiment [8]; greater than 40 µM in experiment [9]; 20 µM (≈ 27.1 µg/mL) in experiment [10].
Turning to `CC[C@H](C)[C@@H]1NC(=O)[C@H](CCCCN)NC(=O)[C@@H](NC(=O)[C@H](C)NC(=O)[C@@H](NC(=O)[C@H](CC(C)C)NC(=O)[C@H](CC(=O)O)NC(=O)[C@@H](NC(=O)CNC(=O)[C@H](CC(C)C)NC(=O)[C@H](CCCCN)NC(=O)[C@H](C)NC(=O)[C@H](CC(C)C)NC(=O)[C@H](CC(=O)O)NC(=O)[C@H](CCCCN)NC(=O)CNC(=O)[C@H](CC(C)C)NC(=O)CNC(=O)[C@H](CCCCN)NC(=O)[C@H](CO)NC(=O)[C@H](C)NC(=O)[C@H](Cc2ccccc2)NC(=O)[C@H](CCCCN)NC(=O)[C@H](C)NC(=O)[C@@H](NC(=O)CNC(=O)[C@H](CCCN=C(N)N)NC(=O)[C@H](Cc2ccccc2)NC(=O)[C@@H](NC(=O)[C@H](CO)NC(=O)[C@H](CO)NC(=O)[C@H](Cc2ccccc2)NC(=O)CN)[C@@H](C)CC)C(C)C)C(C)C)C(C)C)CSSC[C@@H](C(=O)O)NC(=O)[C@H](CCC(N)=O)NC(=O)[C@H](CCCCN)NC(=O)[C@H](CO)NC1=O` [GFSSIFRGVAKFASKGLGKDLAKLGVDLVACKISKQC], the minimum inhibitory concentration (MIC) was 5 µM (≈ 19.2 µg/mL) in experiment [11]; 10 µM (≈ 38.4 µg/mL) in experiment [12]; 6 µM (≈ 23 µg/mL) in experiment [13]; 6 µM (≈ 23 µg/mL) in [14]; 6 µM (≈ 23 µg/mL) in [15]; 5 µM (≈ 19.2 µg/mL) in experiment [6]. Moreover, the MIC in [16] amounted to 5 µM (≈ 19.2 µg/mL); in experiment [17] it was 5 µM (≈ 19.2 µg/mL); in experiment [18], 3 µM (≈ 11.5 µg/mL).
As for `CC(C)C[C@H](NC(=O)[C@H](CC(C)C)NC(=O)[C@H](CO)NC(=O)[C@H](CCC(N)=O)NC(=O)[C@@H](NC(=O)[C@@H](NC(=O)[C@H](CCCCN)NC(=O)[C@@H]1CCCN1C(=O)[C@H](CC(=O)O)NC(=O)[C@@H](N)CC(C)C)C(C)C)C(C)C)C(N)=O` [LDPKVVQSLL], the minimal inhibitory concentration (MIC) is no less than 200 µM in experiment [19], no less than 200 µM in [20], greater than 200 µM in [10] and no less than 200 µM in the experiment with Botrytis cinerea.
